In test [1] the target is WT tEGFR (human EGFR aa 25–1022) (Homo sapiens, UniProt P00533). Nature of the test: Radiometric kinase inhibition assay, WT tEGFR. Format: biochemical.
The target in another test is Δ746–750 tEGFR (Homo sapiens, UniProt P00533, DEL746-750).
In another test the target is L858R tEGFR (Homo sapiens, UniProt P00533, L858R).
A further test concerns HEK293 GnTi− cells. Put plainly: Expression of mutant tEGFRs in transfected cells. To be noted: 50 nM in culture medium; western blot. Format: cell-based, human. (In western blotting, separated proteins are transferred to a membrane and probed.)
Test [2] has as its target L858R I706Q tEGFR (human).
A further test deals with EGFR catalytic domain. Particulars: cited from earlier work.
Test [3] concerns the target Δ(746–750) I706Q tEGFR (human).

As usually defined, the IC50 is the point on the concentration scale where inhibition reaches its midpoint. Read a low IC50 as greater potency.

On to `Nc1ncnc2c1ncn2[C@@H]1O[C@H](COP(=O)(O)OP(=O)(O)NP(=O)(O)O)[C@@H](O)[C@H]1O` [AMP-PNP], for which the IC50 in test [1] (WT tEGFR–EGF, 10 µM ATP, range stated for WT and mutant tEGFRs) lay within 80 to 200 µM; against Δ746–750 tEGFR (Δ(746–750) tEGFR–EGF, 10 µM ATP, range stated for WT and mutant tEGFRs) it was 80 to 200 µM; against L858R tEGFR (L858R tEGFR–EGF, 10 µM ATP, range stated for WT and mutant tEGFRs) it was 80 to 200 µM. Also, the Ki in test [1] (read-out: Ki (deduced from IC50, ATP concentration and ATP Kmapp), WT tEGFR–EGF) is 21 ± 5 µM. Moreover, the “Ki fold higher compared with WT” value is 5–8 fold on Δ746–750 tEGFR (Δ746–750 vs WT tEGFR, range stated for both mutants) and 5–8 fold on L858R tEGFR (L858R vs WT tEGFR, range stated for both mutants).
For the compound `C#Cc1cccc(Nc2ncnc3cc(OCCOC)c(OCCOC)cc23)c1` [erlotinib], the “expression of L858R and Δ746–750 tEGFRs” value with HEK293 GnTi− cells is listed as “enhanced expression”.
As to L858R I706Q tEGFR (receptor), in test [2], the kinase rate in the presence of EGF, against the single mutant L858R tEGFR was determined as 30 fold lower.
As to “Segment 1 of MIG6: MIG6 segment 1 (30mer, residues 334–364) peptide made by solid-phase peptide synthesis (SPKSLPSYLNGVMPPTQSFAPDPKYVSSKAL)”, in test [1] (EGF–bound WT tEGFR, phosphorylation of biotinylated substrate peptide), inhibition was half-maximal at 100 µM (IC50). Further, the “inhibition by MIG6 segment 1” value with Δ746–750 tEGFR (Δ(746–750) tEGFR–EGF, up to 100 µM) is listed as “essentially resistant to inhibition”; with L858R tEGFR (L858R tEGFR–EGF, up to 100 µM), “essentially resistant to inhibition”. In addition, in the test on EGFR catalytic domain, the “affinity, fold weaker relative to segment 1+2” value is ~ 100 fold.
Δ(746–750) I706Q tEGFR (receptor): in test [3], the kinase rate of the EGF–bound form, against Δ746–750 tEGFR came to 5 fold lower.

The values above are taken from publication PMC3230693 (Nature structural & molecular biology, 2011).
